Like-named read-outs stand apart in the source and are kept apart here. Some results are limits rather than exact numbers.

A word on the melting point: it is the temperature, or range, at which the solid turns liquid.

For data set [1], the system named is P. falciparum strain 3D7. Also noted: method as in PMID 27616047, PMID 29880399, PMID 25089811. To be noted: reference compounds; read-out: IC50 a (In vitro IC50 values against P. falciparum); cited from earlier work.
Data set [2] concerns the target T1, PfCK (Plasmodium falciparum, UniProt Q8IM71).
T1 construct: A truncated form of PfCK (Δ79-440) featuring an N-terminal 6× His-tag; 6xHis (N); host or cells: Escherichia coli BL21 (DE3) Star
To be noted: reference compounds, cited from earlier work; for IC50: read-out: IC50 PfCK b (compound concentration required to inhibit PfCK enzyme by 50%).

In data set [3] the target is T1, PfCK. As to the kind of experiment: Spectrophotometric coupled enzymatic assay for PfCK activity (substrate choline). The class given is biochemical. To be noted: for IC50: IC50 PfCK b (compound concentration required to inhibit PfCK enzyme by 50%), substrate choline 4 mM, ATP 2 mM; for remaining activity at 25 µM: read-out: PfCK Fractional Activity at 25 µM. On the procedure: A truncated form of PfCK (Δ79-440) featuring an N-terminal 6× His-tag was purchased from Genescript (Piscataway, NJ, USA), cloned into a pET-28a vector and transformed into Escherichia coli BL21 (DE3) Star cells (Invitrogen, Carlsbad, CA, USA). The transformed bacteria were cultured in Luria-Bertani (LB) medium at 37 °C until OD600 = 0.6 and the expression was induced with 1 mM isopropyl β-D-1-thiogalactopyranoside (IPTG). The cell culture was grown overnight at 20 °C and 180 rpm. Cells were pelleted by centrifugation at 10,000 rpm, resuspended in 50 mM Tris/HCl pH 7.5, 500 mM NaCl, 0.2 mM phenylmethylsulphonyl fluoride (PMSF, Sigma Aldrich, St. Luis, MO, USA), DNase (Sigma Aldrich, St. Luis, MO, USA), 0.5 mM β-mercaptoethanol (Sigma Aldrich, St. Luis, MO, USA) and sonicated. Separation of the soluble from the insoluble fraction was obtained by centrifugation at 15,000 rpm and 4 °C. The target enzyme was purified by a two-step purification protocol. In the first step, the cell lysate was incubated for 45 min with Ni-NTA resin (Qiagen, Venlo, The Netherlands) in a gravity column. Then, the column was washed with 40 column volumes (CV) of 50 mM Tris/HCl pH 7.5, 300 mM NaCl, 10 mM imidazole and 1 CV of 50 mM Tris/HCl pH 7.5, 300 mM NaCl, 40 mM imidazole. Finally, the His-tagged enzyme was eluted from the column using a 50 mM Tris/HCl pH 7.5, 300 mM NaCl, 400 mM imidazole buffer. A subsequent size-exclusion chromatography step was implemented to further polish the sample using a HiPrep 26/60 Sephacryl 100 HR column (GE Healthcare, Little Chalfont, Buckinghamshire, UK) previously equilibrated with 20 mM Tris/HCl pH 7.5, 150 mM NaCl buffer. This second purification step afforded a pure protein sample. The protein production yield was estimated to be nearly 2.5 mg of recombinant enzyme per liter of bacterial culture.
A spectrophotometric 96-well plate assay for PfCK activity was established based on an assay previously described. The reaction mix was composed as follows: 100 mM Tris/HCl pH 7.5, 100 mM KCl, 10 mM MgCl2, 0.5 mM phosphoenolpyruvate, 0.25 mM NADH, 4 U of pyruvate kinase, 5 U lactate dehydrogenase, 2 mM ATP, 4 mM choline chloride and different concentrations of the selected compounds. All the necessary compounds for the assay were purchased from Sigma Aldrich (St. Luis, MO, USA) and the final assay volume was 200 μL. The enzymatic reaction was initiated by the addition of the enzyme at less than 10 nM concentration and the reaction rates were measured by monitoring the decrease in the absorbance at 340 nm for 20 min at room temperature using a Spark10M instrument (Tecan). Finally, the IC50 values for each compound were determined by plotting the enzyme fractional activity (f.a.) against the logarithm of compound concentration (log[I]). Curve-fitting was performed with a dose-response curve from Origin (OriginLab Corporation, Northampton, MA, USA), using the following equation: f.a.=1/1+10^logIC50−logI
All data points were collected in triplicate and the final dose-response curves were plotted with MATLAB (R2018a (9.4.0.813654), 2018, MathWorks, Natick, MA, USA). See curves in Figure S1 in Supplementary Materials.

Data set [4] deals with P. falciparum strain 3D7. The experiment in a line: Antimalarial activity, P. falciparum lactate dehydrogenase growth inhibition assay. To be noted: Plasmodium falciparum. Format: cell-based, Plasmodium falciparum. On the procedure:
Parasites of the P. falciparum strain 3D7 were grown in fresh group 0 positive human erythrocytes, obtained from the Centro Regional de Transfusion Sanguínea-SAS (Granada, Spain) and suspended at 5% haematocrit in RPMI 1640 containing 2% human serum, 0.2% NaHCO3, 0.5% Albumax II, 150 μM hypoxanthine, and […] gentamicin. Flasks were incubated at 37 °C, under 5% CO2 and 95% air mixture. […] The stock culture was then diluted with complete medium and non-parasitized erythrocytes to yield a haematocrit of 2% and parasitemia of 0.25%. Stock solutions of the test drugs were prepared at an initial concentration of 200 mM in DMSO, serially diluted and dispensed into triplicate in 96-well plates to yield final concentrations ranging from 0.0039 to 2 μM. The final well volume was 200 μL with a final concentration of DMSO 0.001%. Each plate also included positive growth controls, where only medium were added, and negative growth controls with 100 nM of chloroquine. […] A multidrop dispenser was used to add 50 μL of synchronized parasite culture per well. After 72 h of growth in presence of test compounds, the plates were stored frozen at −20 °C for at least 24 h. Next, they were thawed at room temperature. Parasite growth inhibition assays and IC50 determinations were carried out following the P. falciparum lactate dehydrogenase assay where parasite viability is quantified by measuring LDH activity upon APAD+ addition, a cofactor that is specific to the Plasmodium enzyme. To evaluate LDH activity, 140 μL of freshly made reaction mix, containing 143 mM sodium L-lactate, 143 μM APAD, 178.75 μM NBT, 1 U/mL diaphorase, 0.7% Tween 20 and 100 mM Tris-HCl (pH 8.0) were dispensed into plates. After 10 min of incubation in the dark at room temperature, absorbance was measured at 630 nm with a vmax precision multiwell plate reader from Molecular Devices, by using the accompanying SOFT maxPro software for analysis.

Where [5] appears, read: Erythrocyte, P. falciparum 3D7 in human erythrocytes, 72 h, LDH readout, read-out: IC50 a (In vitro IC50 values against P. falciparum).

T1 sequence (Q8IM71 entry or part of it): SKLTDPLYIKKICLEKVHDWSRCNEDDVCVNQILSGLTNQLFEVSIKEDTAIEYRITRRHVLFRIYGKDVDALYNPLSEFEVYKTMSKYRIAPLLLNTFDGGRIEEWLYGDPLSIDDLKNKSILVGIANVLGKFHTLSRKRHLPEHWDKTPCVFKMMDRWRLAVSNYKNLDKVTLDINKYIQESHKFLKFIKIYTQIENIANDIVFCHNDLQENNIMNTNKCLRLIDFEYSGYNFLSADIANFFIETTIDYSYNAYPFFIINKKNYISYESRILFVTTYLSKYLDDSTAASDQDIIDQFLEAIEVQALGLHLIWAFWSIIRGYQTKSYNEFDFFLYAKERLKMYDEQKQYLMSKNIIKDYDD

Turning to `CN(C)c1cc[n+](Cc2ccc(-c3ccc(C[n+]4ccc(N5CCCC5)cc4)cc3)cc2)cc1` [BR-23], the IC50 is 0.003 ± 0.0002 µM in data set [1] and 276 µM in data set [2]. In addition, the “inhibition of PfCK depending on substrate (in words)” value in data set [2] (choline kinase or ethanolamine kinase activity) is “only had inhibitory activity when the enzyme-substrate was ethanolamine”.
`Clc1ccc2c(N3CCCCCC3)cc[n+](Cc3ccc(OCCOc4ccc(C[n+]5ccc(N6CCCCCC6)c6ccc(Cl)cc65)cc4)cc3)c2c1` [10k]: the results for the IC50 in data set [1] and in data set [2] were 0.035 ± 0.004 µM and 10.9 ± 0.124 µM, respectively.
In the case of `CN(C)c1cc[n+](Cc2ccc(CCCCc3ccc(C[n+]4ccc(N(C)C)cc4)cc3)cc2)cc1` [MN58b], the IC50 in data set [1] is 0.0035 µM.
Take `C[N+]1(C)CCOC(O)(c2ccc(-c3ccc(C4(O)C[N+](C)(C)CCO4)cc3)cc2)C1` (centres unmarked) [HC-3]: the IC50 in data set [1] was over 50 µM.
Regarding `[Br-].[Br-].c1cc2c(s1)c(N1CCCCCC1)nc[n+]2Cc1ccc(CCCCc2ccc(C[n+]3cnc(N4CCCCCC4)c4sccc43)cc2)cc1` [Fa-29, (1,1’((butane1,4diylbis(4,1phenylene))bis(methylene))bis(4-(azepan-1-yl)thieno[3,2-d]pyrimidin-1-ium)) bromide], the melting point was 268 to 270 °C. Also, in data set [3], the IC50 is 4.64 ± 0.2 µM and the remaining activity at 25 µM stood at 46.7 ± 9.49%. Moreover, the IC50 in data set [4] (3D7, Erythrocyte, 72 h, read-out: IC50 a (In vitro IC50 values against P. falciparum)) amounted to 0.0556 µM.
`[Br-].[Br-].c1cc2c(s1)c(N1CCCC1)cc[n+]2Cc1ccc(CCc2ccc(C[n+]3ccc(N4CCCC4)c4sccc43)cc2)cc1` [Fg-11, 4,4’-((ethane-1,2-diylbis(4,1-phenylene))bis(methylene))bis(7-(pyrrolidin-1-yl)thieno[3,2-b]pyridin-4-ium) bromide] registered a melting point of 253 to 255 °C. In addition, in data set [3], the IC50 came out at 16.5 ± 1.43 µM and the remaining activity at 25 µM was determined as 33 ± 1.48%. In data set [4] (setting [5]), the IC50 came out at 0.232 µM.
As to `[Br-].[Br-].c1cc2c(s1)c(N1CCCCC1)nc[n+]2Cc1ccc(-c2ccc(C[n+]3cnc(N4CCCCC4)c4sccc43)cn2)nc1` [Fa-27, 1,1’-([2,2’-bipyridine]-5,5’-diylbis(methylene))bis(4-(piperidin-1-yl)thieno[3,2-d]pyrimidin-1-ium) bromide], the melting point lay in the range of 307 to 309 °C. In data set [3], the remaining activity at 25 µM was 82.6 ± 4.9%. In data set [4] (setting [5]), the IC50 was 0.12 µM.
`[Br-].[Br-].c1cc2c(s1)c(N1CCCC1)cc[n+]2Cc1ccc(OCCOc2ccc(C[n+]3ccc(N4CCCC4)c4sccc43)cc2)cc1` [Ff-2, 4,4’-(((ethane-1,2-diylbis(oxy))bis(4,1-phenylene))bis(methylene))bis(7-(pyrrolidin-1-yl)thieno[3,2-b]pyridin-4-ium) bromide] registered a melting point of 280 to 282 °C. In addition, the remaining activity at 25 µM in data set [3] was determined as 81.8 ± 3.93%. Besides, the IC50 in data set [4] (setting [5]) was determined as 0.074 µM.
The like results for `[Br-].[Br-].c1cc2c(N3CCCCC3)nc[n+](Cc3ccc(OCCOc4ccc(C[n+]5cnc(N6CCCCC6)c6ccsc65)cc4)cc3)c2s1` [Ff-5, 1,1′-(((ethane-1,2-diylbis(oxy))bis(4,1-phenylene))bis(methylene))bis(4-(piperidin-1-yl)thieno[2,3-d]pyrimidin-1-ium) bromide] were, in that order, over 280 °C, 91.1 ± 4.27% and 0.0224 µM.
For `CN(C)c1cc[n+](Cc2ccc(CCCCc3ccc(C[n+]4ccc(N(C)c5ccc(Cl)cc5)cc4)cc3)cc2)cc1` [BR-33], the IC50 in data set [1] is 0.045 ± 0.003 µM.
With `C/[N+](c1ccc(Cl)cc1)=c1\ccn(Cc2ccc(-c3ccc(Cn4cc/c(=[N+](/C)c5ccc(Cl)cc5)c5ccccc54)cc3)cc2)c2ccccc12` [RSM-932A], the IC50 in data set [1] was 0.0265 µM.
`[Br-].[Br-].c1cc2c(N3CCCCCC3)nc[n+](Cc3ccc(CCCCc4ccc(C[n+]5cnc(N6CCCCCC6)c6ccsc65)cc4)cc3)c2s1` [Ff-35, (1,1’((butane1,4diylbis(4,1phenylene))bis(methylene))bis(4-(azepan-1-yl)thieno[2,3-d]pyrimidin-1-ium)) bromide] returned a melting point of 117 to 119 °C. In addition, the remaining activity at 25 µM in data set [3] was 57.6 ± 12.3%. Moreover, in data set [4] (setting [5]), the IC50 is 0.0484 µM.
In turn, `[Br-].[Br-].c1cc2c(N3CCCC3)nc[n+](Cc3ccc(OCCOc4ccc(C[n+]5cnc(N6CCCC6)c6ccsc65)cc4)cc3)c2s1` [Ff-4, 1,1’-(((ethane-1,2-diylbis(oxy))bis(4,1-phenylene))bis(methylene))bis(4-(pyrrolidin-1-yl)thieno[2,3-d]pyrimidin-1-ium) bromide] had a melting point of 193 to 195 °C. In data set [3], the IC50 turned out to be 37.4 ± 3.24 µM and the remaining activity at 25 µM stood at 90.7 ± 4.57%. In data set [4] (3D7, Erythrocyte, infected erythrocytes, P. falciparum, read-out: antimalarial activity (IC50), as given in the text), the IC50 is about 0.011 µM. Further, in data set [4] (setting [5]), the IC50 amounted to 0.0115 µM.
As to `CN(C)c1cc[n+](Cc2ccc(-c3ccc(C[n+]4ccc(N(C)c5ccc(Cl)cc5)cc4)cc3)cc2)cc1` [BR-31], in data set [1], the IC50 is 0.007 ± 0.0006 µM.
Compound `[Br-].[Br-].c1cc2c(s1)c(N1CCCC1)nc[n+]2Cc1ccc(OCCOc2ccc(C[n+]3cnc(N4CCCC4)c4sccc43)cc2)cc1` [Ff-8, 1,1’-(((ethane-1,2-diylbis(oxy))bis(4,1-phenylene))bis(methylene))bis(4-(pyrrolidin-1-yl)thieno[3,2-d]pyrimidin-1-ium) bromide] had a melting point of 217 to 219 °C. Moreover, the remaining activity at 25 µM in data set [3] was determined as 63.1 ± 6.74%. The IC50 in data set [4] (setting [5]) turned out to be 0.0352 µM.
`[Br-].[Br-].c1cc2c(s1)c(N1CCCCC1)nc[n+]2Cc1ccc(CCCCc2ccc(C[n+]3cnc(N4CCCCC4)c4sccc43)cc2)cc1` [Fa-33, 1,1’-((butane-1,4-diylbis(4,1-phenylene))bis(methylene))bis(4-(piperidin-1-yl)thieno[3,2-d]pyrimidin-1-ium) bromide] had a melting point of 276 to 278 °C. Also, in data set [3], the remaining activity at 25 µM was found to be 68.8 ± 6.03%. In addition, the IC50 in data set [4] (setting [5]) is 0.0439 µM.

(Values after publication PMC8621770, “New Compounds with Bioisosteric Replacement of Classic Choline Kinase Inhibitors Show Potent Antiplasmodial Activity” (Pharmaceutics, 2021).)
